Source: ChEMBL document CHEMBL5579833, “The U.S. FDA approved cardiovascular drugs from 2011 to 2023: A medicinal chemistry perspective” (Eur J Med Chem, 2024)
Structures can show the parent of a compound that is named as a salt. Values belong to the compound of their own block, whether it stands above or below them.

Key:
[1] = Activation of Myosin S1 ATPase activity in bovine Cardio-myofibril
[2] = Elimination half life in cynomologus monkey; conditions: cynomolgus monkey, in vivo
[3] = Plasma protein binding in cynomolgus monkey
[4] = molecular target: T1, Type-2 angiotensin II receptor (Homo sapiens, UniProt P50052); assay: Inhibition of Angiotensin-2 receptor (unknown origin)
T1 sequence (P50052 whole entry): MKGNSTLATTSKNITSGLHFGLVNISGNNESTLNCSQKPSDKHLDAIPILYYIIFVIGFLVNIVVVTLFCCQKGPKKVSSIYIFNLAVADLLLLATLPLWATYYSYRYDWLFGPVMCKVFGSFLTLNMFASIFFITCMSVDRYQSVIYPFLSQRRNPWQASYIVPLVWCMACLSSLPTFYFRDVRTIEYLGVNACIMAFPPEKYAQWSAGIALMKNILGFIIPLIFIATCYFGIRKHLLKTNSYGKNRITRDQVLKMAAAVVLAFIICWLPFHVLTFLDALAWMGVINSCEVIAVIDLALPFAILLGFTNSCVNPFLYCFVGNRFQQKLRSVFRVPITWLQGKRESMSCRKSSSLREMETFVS

[5] = Inhibition of ApoB lipoprotein secretion in human HepG2 cells; assay type: functional; conditions: read-out: ED50 (the source's name)
[6] = organism: Rattus norvegicus; assay: Antithrombotic activity in fibrin-rich platelet-poor rat thrombin
[7] = molecular target: P2Y purinoceptor 12 (Homo sapiens, UniProt Q9H244); assay: Binding affinity to human P2Y12 assessed as inhibition constant
[8] = system: Platelet; assay: Inhibition of thrombin-induced human platelet aggregation

P2Y purinoceptor 12, sequence (Q9H244 whole entry): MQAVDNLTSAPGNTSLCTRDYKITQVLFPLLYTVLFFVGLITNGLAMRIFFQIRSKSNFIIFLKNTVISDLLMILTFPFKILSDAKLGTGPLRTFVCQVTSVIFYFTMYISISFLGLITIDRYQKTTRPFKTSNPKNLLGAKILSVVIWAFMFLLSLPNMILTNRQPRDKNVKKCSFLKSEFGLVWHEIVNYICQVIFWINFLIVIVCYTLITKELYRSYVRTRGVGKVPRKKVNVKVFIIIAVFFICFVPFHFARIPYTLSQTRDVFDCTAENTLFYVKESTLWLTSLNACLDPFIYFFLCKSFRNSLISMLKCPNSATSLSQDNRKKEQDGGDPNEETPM

SMILES: CC(C)n1c(=O)cc(N[C@@H](C)c2ccccc2)[nH]c1=O
IC50 [1]: 300 nM

SMILES: O=C(NC1CCN(CCCCC2(C(=O)NCC(F)(F)F)c3ccccc3-c3ccccc32)CC1)c1ccccc1-c1ccc(C(F)(F)F)cc1 [LOMITAPIDE MESYLATE]
EC50 [5]: 0.8 nM

SMILES: O=C(NC[C@H]1CN(c2ccc(N3CCOCC3=O)cc2)C(=O)O1)c1ccc(Cl)s1 [RIVAROXABAN]
ED50 [6]: 0.1 mg/kg

SMILES: CCOC(=O)N[C@@H]1CC[C@@H]2[C@@H](C1)C[C@H]1C(=O)O[C@H](C)[C@H]1[C@H]2/C=C/c1ccc(-c2cccc(F)c2)cn1 [VORAPAXAR]
IC50 [8]: 47 nM

Second part, the compound after the results:

half-life [2]: 4.6 h
fraction unbound [3]: 0.06
SMILES: CCCCC(=O)N(Cc1ccc(-c2ccccc2-c2nnn[nH]2)cc1)[C@H](C(=O)O)C(C)C.CCOC(=O)[C@H](C)C[C@@H](Cc1ccc(-c2ccccc2)cc1)NC(=O)CCC(=O)O

IC50 [4]: 2.6 nM
SMILES: CCOc1nc2cccc(C(=O)OCc3oc(=O)oc3C)c2n1Cc1ccc(-c2ccccc2-c2noc(=O)[nH]2)cc1 [AZILSARTAN MEDOXOMIL]

Ki [7]: 4.3 nM
SMILES: CCCSc1nc(N[C@@H]2C[C@H]2c2ccc(F)c(F)c2)c2nnn([C@@H]3C[C@H](OCCO)[C@@H](O)[C@H]3O)c2n1 [TICAGRELOR]
